Common to all, as to assay type: cell-based, human
For test [1], the system named is CD45 positive cells infiltrating PDOs. Nature of the test: Flow cytometry of CD45 positive immune cells infiltrating PDOs after coculture with activated PBMC. The following applies: 48 h coculture. The method, then: (§1) A multi-modal assay was developed to test tumour cell response to niraparib and the effects of the treatment on immune cells. The assay is illustrated in FIG. 1. […] After 5 to 7 days (according to the proliferation rate of each PDO), one plate is treated with different doses of niraparib and DMSO for cytotoxicity evaluation. The remaining plates, PDOs are treated with niraparib (1.4 μM), cisplatin (4.7 μM), DMSO or saline solution (control) for 7 days. Following the treatment period, the media from one plate/condition (i.e. one DMSO and one Niraparib-treated plate) is collected for exosomes isolation and analysis of DNA length and the PDOs are processed to extract RNA for RNAseq and qRT-PCR (see the details in the qRT-PCR analysis section). For both niraparib and cisplatin treated samples (and the respective controls) PDOs are collected from the remaining plates and, after washing out BME, are plated into low adherence 96 well plates in a 1 to 6 ratio with Peripheral Blood Mononuclear Cells (PBMCs) pre-stimulated for a total of 4 days using anti-CD3 in combination anti-CD28 (as costimulatory signal) antibodies. The PDOs are co-cultured for 48 h after which all the cells are collected, the not infiltrating immune cells are washed off and the rest is either digested to single cells or fixed and embedded as whole tissue. For flow cytometry analysis the single cells are blocked, stained with antibody mix, fixed, and run on a flow cytometer. For imaging, the embedded organoids are labelled with different antibodies, cleared, and imaged.
After 48 h of co-culture, PDOs are collected. The non-infiltrating immune cells are separated with a cell strainer while the organoids and infiltrating immune cells reduced to single cell level. Live dead exclusion is performed incubating the cells with Zombie dye for 30 minutes at room temperature. Following a blocking step in MACS buffer and anti-human and mouse IgG, staining is performed in
MACS buffer with mouse anti human CD3, CD8, CD4, CD56, CD226, CD45, TIGIT, PD1, PDL1, EpCAM, PVRIG, TIM3, CD96, CD14 and CD11b antibodies for one hour at 4° C. The cells are then fixed and DNA staining performed. The cell-containing tubes are running on CytoFLEX (Beckman Coulter), and data analyzed with FlowJo software.

The next test concerns PD1. Description: Flow cytometry of PD1 expression on CD4 positive cells cocultured with PDOs. The settings on record: niraparib-treated PDOs, 48 h coculture. How it is done:
as §1, with “The PDOs are co-cultured for 48 h after which all the cells are collected, the not infiltrating immune cells are washed off and the rest is either digested to single cells or fixed and embedded as whole tissue. For flow cytometry analysis the single cells are blocked, stained with antibody mix, fixed, and run on a flow cytometer. For imaging, the embedded organoids are labelled with different antibodies, cleared, and imaged.” left out
(§2) MACS buffer with mouse anti human CD3, CD8, CD4, CD56, CD226, CD45, TIGIT, PD1, PDL1, EpCAM, PVRIG, TIM3, CD96, CD14 and CD11b antibodies for one hour at 4° C. […] The cell-containing tubes are running on CytoFLEX (Beckman Coulter), and data analyzed with FlowJo software.
For orientation: In flow cytometry, cells or beads pass a laser one at a time.

The subject of the next test is PD-L1. Nature of the test: PD-L1 expression in PDO tumour cells cocultured with activated PBMC (flow cytometry and multiplex imaging). The settings on record: resistant PDOs, co-cultured 48 h with activated PBMC. The method, then:
A multi-modal assay was developed to test tumour cell response to niraparib and the effects of the treatment on immune cells. The assay is illustrated in FIG. 1. […] After 5 to 7 days (according to the proliferation rate of each PDO), one plate is treated with different doses of niraparib and DMSO for cytotoxicity evaluation. The remaining plates, PDOs are treated with niraparib (1.4 μM), cisplatin (4.7 μM), DMSO or saline solution (control) for 7 days. Following the treatment period, the media from one plate/condition (i.e. one DMSO and one Niraparib-treated plate) is collected for exosomes isolation and analysis of DNA length and the PDOs are processed to extract RNA for RNAseq and qRT-PCR (see the details in the qRT-PCR analysis section). […]
as §2
Multiplex fluorescence imaging assay is performed on a single 6-micron cryosection of fixed-frozen PDOs. […]

The subject of test [2] is exosomal DNA (exoDNA) from PDOs. Nature of the test: Length of DNA isolated from exosomes (exoDNA) of treated PDOs. The following applies: for exoDNA length, sensitive PDO HNX29: HNX29 (sensitive, representative), exosomes collected after 6 days, compared to control. How it is done: as §1, with “The remaining plates, PDOs are treated with niraparib (1.4 μM), cisplatin (4.7 μM), DMSO or saline solution (control) for 7 days.” left out
Exosomes are obtaining by a series of centrifugations and ultra-centrifugations at increasing speeds of the media collected from the PDO cultures. Each sample is split into two tubes for the ultracentrifugation (for subsequent protein and genomic analysis).
DNA is extracted from exosomes via silica-membrane based nucleic acid purification by QIAamp Blood DNA extraction Kit (QIAGEN) and quantified by Qubit dsDNA HS kit. The Genomic DNA ScreenTape assay on the Agilent 4200 Tapestation system is used to assess the length of DNA and the R package bioanalyzeR exploited to obtain the DNA size distribution and number of molecules at different sizes. Part of the exosome DNA is sequenced using Oxford Nanopore Promethion for a drug treatment and a control experiment. For both samples, reads are then aligned to the human genome (hg38) using minimap2, and the following analyses performed. For every gene for which there are any aligned reads, the following is calculated: • Fragments per kilobase million (FPKM) as a normalised metric of representation of gene in the exosome dataset • The maximum fraction of total gene length that is covered by a single nanopore read. • The median fraction of total gene length that is covered by all nanopore reads that aligned to that gene • Coding and non-coding variants (for all bases for which there was a minimum depth of 20 reads) • Hypomethylation of CpG island of coding variants

For test [3], the system named is EpCAM positive cells of PDOs. Nature of the test: Tumour cell viability by flow cytometry (live cells within EpCAM positive cells) after coculture with PBMC. The settings on record: 1.4 μM niraparib or DMSO 7 days, 48 h coculture with PBMC. How it is done: as §1, with “The PDOs are co-cultured for 48 h after which all the cells are collected, the not infiltrating immune cells are washed off and the rest is either digested to single cells or fixed and embedded as whole tissue. For flow cytometry analysis the single cells are blocked, stained with antibody mix, fixed, and run on a flow cytometer. For imaging, the embedded organoids are labelled with different antibodies, cleared, and imaged.” left out
Cell viability is evaluated by flow cytometry analysis performed after 48 h of co-culture subsequent to 7 days of treatment with 1.4 μM Niraparib or DMSO (as control). […]

The subject of test [4] is Patient-derived organoids (PDOs), HNSCC and NSCLC. Description: Cytotoxicity in patient-derived organoids (Cell titre glow dose-response curve). The settings on record: for PDO response to niraparib compared with cisplatin: resistant and sensitive PDOs, 6 days. How it is done: as §1
PDOs are seeded as single cells at a certain density (according to their growth rate) in 15 μl BME/dome.
1 dome per well in 24-wells plate with 1 ml of complete media/each well. […] 150 μl of the solution is collected from each well and transferred to a 96 well plate for the reading performed with Clariostar Plus (BMG Labtech). […]

“Also recorded” adds a separate entry of the source.

`NC(=O)c1cccc2cn(-c3ccc([C@@H]4CCCNC4)cc3)nc12` [niraparib]: in test [1] (resistant PDOs (high niraparib IC50), niraparib 1.4 μM 7 days, vs DMSO), the “infiltration of CD45 positive cells, niraparib-treated resistant PDOs” value is “increased in resistant samples; also recorded: increased infiltration of CD45 positive cells; also recorded: increased levels of CD45 positive cell infiltration”. Further, in test [1] (sensitive PDOs (low niraparib IC50), niraparib 1.4 μM 7 days, vs DMSO), the “infiltration of CD45 positive cells, niraparib-treated sensitive PDOs” value was “reduced in sensitive samples; also recorded: decreased infiltration with CD45 positive cells”. In addition, the “PD1 expression in infiltrating CD4 positive cells” value in the test with PD1 (infiltrating CD4 positive (T) cells) is given as “PD1 expression increases with the increased in IC50 value; also recorded: upregulate PD1 expression; also recorded: high levels of PD1 expression”. In addition, the “PD1 expression in non-infiltrating CD4 positive cells” value in the test on PD1 (non-infiltrating CD4 positive cells) is listed as “PD1 expression negatively correlates with niraparib IC50 value”. Moreover, the “PD-L1 expression in niraparib-treated tumour cells” value in the test with PD-L1 (vs DMSO) is recorded as “upregulation of PD-L1 expression; also recorded: PDL1 upregulation; also recorded: high levels of PD-L1, or PD-L1 upregulation”. In addition, the “correlation of exoDNA length with niraparib IC50” value in test [2] (6 HNSCC and 3 NSCLC PDOs) is on record as “exoDNA length correlates with the niraparib IC50”. For the same compound, in test [2], the “exoDNA length, sensitive PDO HNX29” value is recorded as “higher”. In addition, the “threshold ratio (niraparib/DMSO) of exosomal DNA length” value in test [2] (ROC curve vs IC50 value, 10 PDOs, sensitivity 100%, specificity 67%) came out at 1.1. In test [2] (compared to exoDNA from DMSO-treated counterpart), the “exoDNA length, niraparib-treated, versus niraparib sensitiveness” value was “increased with the increase of niraparib sensitiveness”. Further, the “exoDNA length, niraparib-treated more resistant PDOs” value in test [2] (resistant PDOs, compared to DMSO-treated counterpart) is recorded as “shorter”. In test [3], the “threshold ratio (niraparib/DMSO) in tumour cell viability between sensitive and resistant cancers” value amounted to 0.75. Moreover, the “change / ratio (niraparib/DMSO) in tumour cell viability” value in test [3] (sensitive vs resistant PDOs) was “higher ratio (naraparib/DMSO) in tumour cell viability; also recorded: only pronounced in cancers that are sensitive to the PARP inhibitor, niraparib”. For the same compound, the IC50 in test [4] (Homo sapiens, 168 h, read-out: IC50 threshold (inflection point) above which increased infiltration of CD45 positive cells is observed, PDOs from multiple tumour types, dose-response curve after 7 days of treatment) is 1 to 1.2 µM. The “PDO response to niraparib compared with cisplatin” value in test [4] is recorded as “similar”.

With `N.N.[Cl][Pt][Cl]` [cisplatin], the “infiltration of CD45 positive cells, cisplatin-treated resistant PDOs” value in test [1] (PDOs classified as resistant to niraparib, cisplatin 4.7 μM 7 days, vs saline) was “higher infiltration of CD45 pos cells; also recorded: increased infiltration of CD45 positive cells”. Besides, in test [1] (PDOs classified as sensitive to niraparib, cisplatin 4.7 μM 7 days, vs saline), the “infiltration of CD45 positive cells, cisplatin-treated sensitive PDOs” value is listed as “decreased infiltration with CD45 positive cells”. The “PD-L1 expression in cisplatin-treated tumour cells” value in the test on PD-L1 (vs saline) is listed as “upregulation of PDL1 expression”. Moreover, in test [2], the “exoDNA length, sensitive PDO HNX29” value was “higher”. The “exoDNA length, cisplatin-treated PDOs more resistant to niraparib” value in test [2] (PDOs more resistant to niraparib, cisplatin-treated) was “shorter”. The “PDO response to niraparib compared with cisplatin” value in test [4] is “similar”.

Source of the values: patent US20260308691A1, “NOVEL USE OF AN INHIBITOR OF THE POLY-ADP RIBOSE POLYMERASE (PARP) IN THE TREATMENT OF CANCER” (TESARO, Inc., priority 2023, published 2026).
